In the NIST ThermoML archive (doi:10.1021/je100715x):

How the values were obtained:
[1] = xn = mol fraction of the nth substance listed; conditions: 101 kPa, Liquid; for viscosity: Capillary tube (Ostwald / Ubbelohde) method; for mass density: Vibrating tube method
[2] = refractive index (Na D-line) (dimensionless); xn = mol fraction of the nth substance listed; conditions: 101 kPa, Liquid, Standard Abbe refractometry

CCOC(=O)C(=O)OCC [diethyl ethanedioate] + O=C1CCCCC1
Conditions | mass density, 303.15 K [kg/m3] | mass density, 308.15 K [kg/m3] | mass density, 313.15 K [kg/m3] | refractive index, 303.15 K | refractive index, 308.15 K | refractive index, 313.15 K | viscosity, 303.15 K [mPa·s] | viscosity, 308.15 K [mPa·s] | viscosity, 313.15 K [mPa·s]
[1], x1 = 0.0784 | 950.2 | 945.1 | 940.1 | – | – | – | 1.777 | 1.595 | 1.466
[1], x1 = 0.1495 | 961 | 955.8 | 950.6 | – | – | – | 1.737 | 1.556 | 1.416
[1], x1 = 0.2501 | 975.4 | 970.3 | 964.9 | – | – | – | 1.682 | 1.5 | 1.36
[1], x1 = 0.3443 | 988.4 | 983.1 | 977.7 | – | – | – | 1.637 | 1.461 | 1.325
[1], x1 = 0.4324 | 1000 | 994.7 | 989.2 | – | – | – | 1.609 | 1.435 | 1.304
[1], x1 = 0.5507 | 1015.1 | 1009.6 | 1004 | – | – | – | 1.584 | 1.415 | 1.285
[1], x1 = 0.6755 | 1030.3 | 1024.7 | 1019 | – | – | – | 1.575 | 1.404 | 1.276
[1], x1 = 0.7601 | 1040.2 | 1034.5 | 1028.7 | – | – | – | 1.581 | 1.407 | 1.284
[1], x1 = 0.8756 | 1053.1 | 1047.4 | 1041.4 | – | – | – | 1.606 | 1.437 | 1.329
[1], x1 = 0.9502 | 1061 | 1055.3 | 1049.3 | – | – | – | 1.62 | 1.464 | 1.351
[2], x1 = 0.0784 | – | – | – | 1.4429 | 1.4406 | 1.4388 | – | – | –
[2], x1 = 0.1495 | – | – | – | 1.4399 | 1.4376 | 1.4359 | – | – | –
[2], x1 = 0.2501 | – | – | – | 1.4359 | 1.434 | 1.4321 | – | – | –
[2], x1 = 0.3443 | – | – | – | 1.4323 | 1.4307 | 1.4287 | – | – | –
[2], x1 = 0.4324 | – | – | – | 1.4287 | 1.4273 | 1.4252 | – | – | –
[2], x1 = 0.5507 | – | – | – | 1.4239 | 1.4223 | 1.4204 | – | – | –
[2], x1 = 0.6755 | – | – | – | 1.4186 | 1.4168 | 1.4152 | – | – | –
[2], x1 = 0.7601 | – | – | – | 1.4154 | 1.4133 | 1.4116 | – | – | –
[2], x1 = 0.8756 | – | – | – | 1.4108 | 1.4088 | 1.4071 | – | – | –
[2], x1 = 0.9502 | – | – | – | 1.4081 | 1.4059 | 1.4043 | – | – | –
